ChEMBL document CHEMBL1201862, “PubChem BioAssay data set” (2004)
Active and inactive are the calls of the source.

Columns and labels:
[1] = target: T1, E3 ubiquitin-protein ligase XIAP (Homo sapiens, UniProt P98170); assay: small molecules displacing peptide from XIAP – biochemical, IAP family, fluorescence polarization (AID 1018); assay type: functional
[2] = target: T1, E3 ubiquitin-protein ligase XIAP; assay: Counter Screen using XIAP-Bir3 for Chemical Antagonists of Bir1/2 domains of IAP-family anti-apoptotic proteins. [Related pubchem assays (depositor defined):AID1018, AID1449, AID1514, AID1638, AID1749, AID1750, AID488957, AID488963]
Prothrombin = Prothrombin (Bos taurus, UniProt P00735); assay: thrombin protease inhibitors – biochemical, fluorescence polarization, uHTS hits, dose response (AID 602369); assay type: functional
[3] = target: 26S proteasome non-ATPase regulatory subunit 14 (Homo sapiens, UniProt O00487); assay: inhibition of proteasome subunit RPN11 – biochemical, fluorescence polarization, uHTS hits, confirmation (AID 602368); assay type: functional
Sequence of 26S proteasome non-ATPase regulatory subunit 14 (O00487 whole entry): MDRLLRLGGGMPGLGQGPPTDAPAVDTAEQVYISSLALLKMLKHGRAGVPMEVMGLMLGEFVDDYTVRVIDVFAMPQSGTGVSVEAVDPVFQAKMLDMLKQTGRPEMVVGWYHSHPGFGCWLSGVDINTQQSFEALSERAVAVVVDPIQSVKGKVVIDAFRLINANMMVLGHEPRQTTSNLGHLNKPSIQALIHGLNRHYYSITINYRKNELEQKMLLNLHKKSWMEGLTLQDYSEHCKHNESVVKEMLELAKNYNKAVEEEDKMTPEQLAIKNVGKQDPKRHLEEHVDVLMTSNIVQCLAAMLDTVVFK

[4] = target: 72 kDa type IV collagenase (Homo sapiens, UniProt P08253); assay: Dose Response validation of uHTS RPN11 inhibitor hits using a MMP-2 Fluorescence assay.; assay type: functional
Sequence of 72 kDa type IV collagenase (P08253 whole entry): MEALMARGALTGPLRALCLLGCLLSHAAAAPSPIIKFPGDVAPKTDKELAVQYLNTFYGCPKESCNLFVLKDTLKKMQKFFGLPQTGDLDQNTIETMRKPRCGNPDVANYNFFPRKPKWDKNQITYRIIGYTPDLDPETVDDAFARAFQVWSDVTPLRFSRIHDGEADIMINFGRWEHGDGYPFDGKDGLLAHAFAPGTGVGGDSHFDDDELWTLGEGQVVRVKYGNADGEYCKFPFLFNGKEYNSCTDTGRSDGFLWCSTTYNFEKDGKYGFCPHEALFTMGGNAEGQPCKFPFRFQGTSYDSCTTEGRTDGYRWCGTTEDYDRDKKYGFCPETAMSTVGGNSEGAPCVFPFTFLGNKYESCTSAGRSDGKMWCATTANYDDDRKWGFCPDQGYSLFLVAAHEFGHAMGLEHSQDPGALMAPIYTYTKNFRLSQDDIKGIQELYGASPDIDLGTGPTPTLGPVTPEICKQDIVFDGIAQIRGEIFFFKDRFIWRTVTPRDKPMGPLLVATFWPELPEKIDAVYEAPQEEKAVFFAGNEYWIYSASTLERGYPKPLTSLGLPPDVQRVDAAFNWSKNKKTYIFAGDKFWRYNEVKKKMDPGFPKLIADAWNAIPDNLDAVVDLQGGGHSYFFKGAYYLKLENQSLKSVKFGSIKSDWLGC

[5] = NIH3T3 cell viability loss – ATP luminescence, mouse fibroblasts, counter-screen, dose response (AID 2010); assay type: functional, cell-based;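 also: cells exposed to compound for about 90 hours before reading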
[6] = Trypanosoma cruzi growth suppression in host cells – NIH3T3 host cells, beta-gal luminescence, confirmation (AID 2044); assay type: functional, cell-based;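 also: intracellular parasites grown in NIH/3T3 mouse fibroblasts as host cells; luminescent beta-galactosidase reporter signal from transgenic T. cruzi replicating inside host cells; inhibitors lower the luminescence signal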
Vero = assay: cells; assay type: functional; details: Chlorocebus sabaeus
[7] = target: G-protein coupled receptor 55 (Homo sapiens, UniProt Q9Y2T6); assay: inhibition of LPI-stimulated GPR55 beta-arrestin translocation – imaging, U2OS, beta-arrestin-GFP, LPI agonist, primary screen (AID 2013); assay type: functional;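 also: antagonist potency measured as reduced agonist-driven arrestin aggregation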
Sequence of G-protein coupled receptor 55 (Q9Y2T6 whole entry, the tested form may be a part): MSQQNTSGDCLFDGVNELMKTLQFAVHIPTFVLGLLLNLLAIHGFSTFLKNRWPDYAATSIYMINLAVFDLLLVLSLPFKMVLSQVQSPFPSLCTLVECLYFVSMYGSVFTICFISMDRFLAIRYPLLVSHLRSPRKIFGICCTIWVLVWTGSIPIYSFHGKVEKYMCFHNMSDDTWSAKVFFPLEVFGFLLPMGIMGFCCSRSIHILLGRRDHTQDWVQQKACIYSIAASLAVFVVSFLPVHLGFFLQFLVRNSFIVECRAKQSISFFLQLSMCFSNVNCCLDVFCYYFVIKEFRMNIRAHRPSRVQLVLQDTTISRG

CHO = CHO cell viability loss, potency – luminescence, cytotoxicity control for TLR9-MyD88 binding inhibitor project, dose response (AID 588339); assay type: functional, cell-based, hamster; details: Cricetulus griseus;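 also: CHO cells stably coexpressing TLR9 and MyD88 fusions from primary screen; compound exposure lasted 48 hours before viability readout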
Beta Lactamase = Beta Lactamase (Pseudomonas aeruginosa, UniProt Q932Y6); assay: BLA reporter interference, concentration series – BLA reporter cells, FRET fluorescence, artefact control for TLR9-MyD88 binding inhibitor project, dose response (AID 588341); assay type: cell-based;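 also: cell based assay in CHO-K1 cells stably expressing beta-lactamase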
Sequence of Beta Lactamase (Q932Y6 whole entry): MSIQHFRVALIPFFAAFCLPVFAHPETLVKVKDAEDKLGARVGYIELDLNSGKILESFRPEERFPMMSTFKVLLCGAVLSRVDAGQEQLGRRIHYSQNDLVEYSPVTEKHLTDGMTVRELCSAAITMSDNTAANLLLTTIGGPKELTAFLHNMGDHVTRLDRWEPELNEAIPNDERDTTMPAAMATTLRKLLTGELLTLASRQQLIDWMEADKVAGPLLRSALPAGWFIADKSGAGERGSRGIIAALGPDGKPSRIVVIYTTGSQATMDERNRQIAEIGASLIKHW

[8] = target: T2, Mitochondrial peptide methionine sulfoxide reductase (Bos taurus, UniProt P54149); assay type: functional;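 also: absorbance read-out, biochemical high-throughput dose-response screen for MsrA inhibitors, confirmatory; recombinant bovine MsrA coupled to E. coli TrxB with NADPH and selenocystamine; potency is for inhibitors of MsrA activity on DMSO substrate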
T2 sequence (P54149 whole entry): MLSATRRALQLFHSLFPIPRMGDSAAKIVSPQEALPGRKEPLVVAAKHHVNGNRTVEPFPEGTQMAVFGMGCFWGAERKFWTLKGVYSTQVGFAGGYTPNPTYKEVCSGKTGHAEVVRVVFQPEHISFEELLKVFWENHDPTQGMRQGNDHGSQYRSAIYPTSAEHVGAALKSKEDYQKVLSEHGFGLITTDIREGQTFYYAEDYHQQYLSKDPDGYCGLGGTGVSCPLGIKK

Caspase-6 = target: T3, Caspase-6 (Homo sapiens, UniProt P55212); assay: inhibition of CASP6 peptide cleavage – biochemical, VEID-R110 fluorescence, cherry-pick, dose response (AID 720632)
T3 sequence (P55212 whole entry): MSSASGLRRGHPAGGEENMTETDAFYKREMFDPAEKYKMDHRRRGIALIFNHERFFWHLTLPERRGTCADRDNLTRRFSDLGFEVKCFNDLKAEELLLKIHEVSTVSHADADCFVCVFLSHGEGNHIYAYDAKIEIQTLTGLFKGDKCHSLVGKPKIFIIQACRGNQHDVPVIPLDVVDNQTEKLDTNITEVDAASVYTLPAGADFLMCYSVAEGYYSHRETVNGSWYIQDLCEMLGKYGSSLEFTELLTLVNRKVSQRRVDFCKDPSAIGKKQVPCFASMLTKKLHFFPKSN

Cytochrome P450 1A2 = target: T4, Cytochrome P450 1A2 (Homo sapiens, UniProt P05177);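 also: PubChem cytochrome P450 panel assay, CYP1A2 panel member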
T4 sequence (P05177 whole entry): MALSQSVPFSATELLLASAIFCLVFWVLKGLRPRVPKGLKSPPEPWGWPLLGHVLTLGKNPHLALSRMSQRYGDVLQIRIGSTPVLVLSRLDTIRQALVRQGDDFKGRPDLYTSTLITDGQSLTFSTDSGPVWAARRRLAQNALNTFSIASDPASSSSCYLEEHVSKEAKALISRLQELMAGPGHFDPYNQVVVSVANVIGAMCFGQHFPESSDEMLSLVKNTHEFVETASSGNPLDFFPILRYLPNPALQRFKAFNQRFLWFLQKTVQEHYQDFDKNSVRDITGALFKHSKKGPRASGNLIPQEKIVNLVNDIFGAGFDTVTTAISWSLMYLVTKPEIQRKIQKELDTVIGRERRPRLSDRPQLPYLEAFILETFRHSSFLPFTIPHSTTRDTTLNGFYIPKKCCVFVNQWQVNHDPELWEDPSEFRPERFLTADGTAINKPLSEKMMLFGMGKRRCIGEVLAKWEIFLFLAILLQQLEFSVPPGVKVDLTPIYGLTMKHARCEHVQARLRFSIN

Cytochrome P450 2C9 = Cytochrome P450 2C9 (Homo sapiens, UniProt P11712)
Sequence of Cytochrome P450 2C9 (P11712 whole entry): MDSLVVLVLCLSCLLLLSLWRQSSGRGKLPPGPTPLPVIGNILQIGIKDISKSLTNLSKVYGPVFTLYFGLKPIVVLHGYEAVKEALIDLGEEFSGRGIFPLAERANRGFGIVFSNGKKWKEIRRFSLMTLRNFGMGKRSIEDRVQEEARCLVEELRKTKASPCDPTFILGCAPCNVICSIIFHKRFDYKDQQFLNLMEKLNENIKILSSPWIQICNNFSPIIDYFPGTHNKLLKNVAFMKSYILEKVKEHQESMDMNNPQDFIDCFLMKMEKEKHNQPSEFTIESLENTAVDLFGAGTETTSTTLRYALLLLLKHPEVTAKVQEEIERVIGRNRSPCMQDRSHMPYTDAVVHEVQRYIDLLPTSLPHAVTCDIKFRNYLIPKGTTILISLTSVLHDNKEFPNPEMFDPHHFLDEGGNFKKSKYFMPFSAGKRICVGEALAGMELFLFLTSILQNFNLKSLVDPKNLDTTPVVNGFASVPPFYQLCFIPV

Cytochrome P450 2D6 = Cytochrome P450 2D6 (Homo sapiens, UniProt P10635);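 also: CYP2D6 member of a cytochrome P450 panel assay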
Sequence of Cytochrome P450 2D6 (P10635 whole entry): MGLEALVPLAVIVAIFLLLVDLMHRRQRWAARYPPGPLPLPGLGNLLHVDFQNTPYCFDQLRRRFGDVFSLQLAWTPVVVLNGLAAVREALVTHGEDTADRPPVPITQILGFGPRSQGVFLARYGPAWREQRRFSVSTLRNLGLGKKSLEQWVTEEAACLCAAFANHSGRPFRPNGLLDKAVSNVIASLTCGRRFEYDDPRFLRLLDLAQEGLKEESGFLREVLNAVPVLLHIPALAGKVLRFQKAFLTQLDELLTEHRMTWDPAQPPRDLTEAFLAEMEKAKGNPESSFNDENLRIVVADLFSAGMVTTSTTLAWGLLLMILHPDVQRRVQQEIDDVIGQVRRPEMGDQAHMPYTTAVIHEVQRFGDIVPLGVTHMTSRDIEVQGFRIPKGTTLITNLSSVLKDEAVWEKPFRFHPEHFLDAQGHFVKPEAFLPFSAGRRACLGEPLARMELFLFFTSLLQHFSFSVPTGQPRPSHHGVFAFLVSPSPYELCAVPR

[9] = target: T5, Orexin/Hypocretin receptor type 1 (Homo sapiens, UniProt O43613); assay: (§1) Fluorescence-based cell-based high throughput dose response assay for antagonists of the orexin 1 receptor (OX1R; HCRTR1). [Related pubchem assays (depositor defined):AID434989, AID435008, AID463079, AID485270, AID492963, AID492964, AID492965, AID493232, AID504717, AID504718]; assay type: functional
T5 sequence (O43613 whole entry): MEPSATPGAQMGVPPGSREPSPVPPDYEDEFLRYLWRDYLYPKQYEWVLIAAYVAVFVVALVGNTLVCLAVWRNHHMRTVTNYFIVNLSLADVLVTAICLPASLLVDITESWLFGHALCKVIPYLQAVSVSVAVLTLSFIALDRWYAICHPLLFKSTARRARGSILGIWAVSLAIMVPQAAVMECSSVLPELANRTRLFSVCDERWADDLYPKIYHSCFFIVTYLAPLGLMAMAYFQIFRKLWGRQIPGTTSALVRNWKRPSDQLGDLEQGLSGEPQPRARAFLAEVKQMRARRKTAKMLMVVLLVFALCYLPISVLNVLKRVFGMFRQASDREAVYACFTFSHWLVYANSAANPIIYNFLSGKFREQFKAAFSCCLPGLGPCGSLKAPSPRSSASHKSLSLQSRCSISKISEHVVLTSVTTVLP

[10] = target: T5, Orexin/Hypocretin receptor type 1; assay: as §1, with “Homogeneous Time Resolved Fluorescence (HTRF)-based” for “Fluorescence-based”; assay type: functional
[11] = (§2) Counterscreen for antagonists of the orexin 1 receptor (OX1R; HCRTR1): Fluorescence-based cell-based high throughput dose response assay to identify antagonists of the parental CHO cell line. [Related pubchem assays (depositor defined):AID434989, AID435008, AID463079, AID485270, AID492963, AID492964, AID492965, AID493232, AID504699, AID504701]; assay type: functional
CHO-K1 = assay: as §2, with “Homogeneous time resolved fluorescence (HTRF)-based” for “Fluorescence-based”, “cell-based” for “cell-based high throughput”, “CHO-K1” for “CHO”; assay type: functional; details: Cricetulus griseus;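 also: potency for inhibition of ATP-stimulated IP1 production as antagonists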

T1 sequence (P98170 whole entry): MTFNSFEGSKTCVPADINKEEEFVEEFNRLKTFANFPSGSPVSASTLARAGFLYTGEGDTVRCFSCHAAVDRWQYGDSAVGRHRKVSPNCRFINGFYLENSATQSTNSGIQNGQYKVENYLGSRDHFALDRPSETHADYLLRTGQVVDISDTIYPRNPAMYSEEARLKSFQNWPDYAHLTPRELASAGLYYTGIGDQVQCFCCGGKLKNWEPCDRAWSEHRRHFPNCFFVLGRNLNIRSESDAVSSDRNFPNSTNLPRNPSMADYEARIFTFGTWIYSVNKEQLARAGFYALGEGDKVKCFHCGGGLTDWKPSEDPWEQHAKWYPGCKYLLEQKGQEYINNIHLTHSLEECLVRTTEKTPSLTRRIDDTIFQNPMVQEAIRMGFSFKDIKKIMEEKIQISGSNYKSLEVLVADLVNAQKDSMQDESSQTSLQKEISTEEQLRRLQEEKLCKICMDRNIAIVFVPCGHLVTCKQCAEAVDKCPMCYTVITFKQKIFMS

SMILES: COc1cc2c(cc1OC)-c1cc(NC3CCCC3)nc(=O)n1CC2
- IC50 [1]: > 100 µM (not active)
- IC50 [2]: > 100 µM (inactive)

SMILES: NS(=O)(=O)c1ccc(N/C=C\C(=O)c2ccc3ccccc3c2)cc1
- IC50 (Prothrombin): 56.5 µM (active)
- IC50 [3]: 28.6 µM (active)
- IC50 [4]: > 100 µM (inactive)

SMILES: O=C(Nc1ccc(Cl)cc1)N(Cc1cccnc1)Cc1ccco1
- EC50 [5]: > 30 µM (not active)
- IC50 [1]: > 100 µM (not active)
- IC50 [2]: > 100 µM (inactive)
- EC50 [6]: 1.1 µM (active)

SMILES: CCCCNc1c(-c2ccc(-c3ccc(OC)cc3)c(OC)c2)nc2ccccn12
- CC50 (Vero): > 25 µM (active)

SMILES: CCOC(=O)c1c(CSC(=N)N)n(C)c2cc(Br)c(OC(C)=O)cc12
- IC50 [7]: 1.22 µM (active)

SMILES: Cc1cccc(C)c1-n1c(C)cc(/C=N\Nc2ccc([N+](=O)[O-])cn2)c1C
- IC50 (CHO): > 49.8 µM (inactive)
- IC50 (Beta Lactamase): 4.04 µM (active)

SMILES: Cn1cnc([N+](=O)[O-])c1S(=O)(=O)Nc1ccccc1
- IC50 [8]: 52.8 µM (inactive)
- AC50 (Caspase-6): 9.66 µM (active)

SMILES: O=C(C1=C(O)C(=O)N(CCCn2ccnc2)C1c1cccc(Br)c1)c1ccco1 (configuration not stated)
- IC50 [8]: 155 µM (inactive)

SMILES: S=C1SCN(Cc2ccccn2)CN1Cc1ccco1
- CC50 (Vero): 24 µM (active)
- AC50 (Cytochrome P450 1A2): 11.2 µM (inconclusive)
- AC50 (Cytochrome P450 2C9): 14.1 µM (inconclusive)
- AC50 (Cytochrome P450 2D6): 17.8 µM (inconclusive)

SMILES: O=C(NCCN1C(=O)S/C(=C\c2ccccc2)C1=O)c1cc(S(=O)(=O)N2CCOCC2)c(Cl)cc1Cl
- IC50 [9]: 10.5 µM (inactive)
- IC50 [10]: 20.3 µM (inactive)
- IC50 [11]: 21.3 µM (inactive)
- IC50 (CHO-K1): > 66.2 µM (inactive)

SMILES: CC(C)Cc1nnc(NC(=O)Cc2cccs2)s1
- IC50 (Prothrombin): 44.7 µM (active)
- IC50 [3]: 20.6 µM (active)
- IC50 [4]: > 100 µM (inactive)
